Source: patent US12415802B1, “Dipyridine benzothiophene derivative compound” (KING FAISAL UNIVERSITY, priority 2025, dated 2025)

Experiment: DPPH radical scavenging antioxidant test
Type: biochemical
Details: 517 nm; for Inhibition (radical scavenging inhibition): 0.2 mL DPPH (0.75 mM), compound (3p M) in ethanol, 30 minutes in the dark; for antioxidant activity (in words): DPPH in vitro test, vitamin C as positive control
Text: A dipyridine benzo[b]thiophene derivative compound comprises 4-(1-benzothiophen-2-yl)-6-ethoxy-2,3′-bipyridine-5-carbonitrile. […] As described herein, the antioxidant activity of 4-(1-benzothiophen-2-yl)-6-ethoxy-2,3′-bipyridine-5-carbonitrile was investigated by 2,2-diphenyl-1-picrylhydrazyl (DPPH) in vitro tests that employ vitamin C as the positive control.
The antioxidant properties of the 4-(1-benzothiophen-2-yl)-6-ethoxy-2,3′-bipyridine-5-carbonitrile compound were studied by adding 0.2 mL DPPH (0.75 mM)) to 4-(1-benzothiophen-2-yl)-6-ethoxy-2,3′-bipyridine-5-carbonitrile (3p M) (4) in ethanol. After 30 minutes of incubation in the dark, the absorbance was read against a blank at 517 nm. Ascorbic acid (Vitamin C) was used as a standard antioxidant (positive control). A blank sample was prepared by 0.2 mL of DPPH in 3 mL ethanol. A negative control sample was run using ethanol instead of the sample. The radical scavenging inhibition was calculated using the following equation: […]
The antioxidant activity for the synthesized compound is listed in Table 1, using Vitamin C as a reference.

| Compound | Inhibition (radical scavenging inhibition) [%] | antioxidant activity (in words) | antioxidant activity (in words) (listed as III) |
| --- | --- | --- | --- |
| CCOc1nc(-c2cccnc2)cc(-c2cc3ccccc3s2)c1C#N [Product 4, 4-(1-benzothiophen-2-yl)-6-ethoxy-2,3′-bipyridine-5-carbonitrile] | 48 | high antioxidant activities | high potential as an antioxidant compared to vitamin C |
| O=C1O[C@H]([C@@H](O)CO)C(O)=C1O [Vit C, Ascorbic acid, reference compound] | 74 | – | – |
